US20110003751A1, “Novel Immunoregulatory Peptides, Compositions and Uses Thereof” (priority 2007, published 2011)

Tested on: CFU-S regeneration in the bone marrow of 1-Gy irradiated mice
Assay: Stimulation of CFU-S regeneration in bone marrow of 1-Gy irradiated mice (spleen colony count)
Type: in vivo
Procedure: Test animals were irradiated with ^60Co gamma-rays at a dose rate of 0.8 Gy per min. Bone marrow recipients were irradiated with a dose of 8 Gy; donors were irradiated with a dose of […]. The suspension of bone marrow cells of intact animals was irradiated with 1 Gy, 5-10 min prior to injection to lethally irradiated recipients.
Stimulation of CFU-S regeneration in the bone marrow of 1-Gy irradiated mice was studied with different routes of administration of the peptides.
For this purpose, at least 5 mice from each group were killed and their bone marrow was obtained. Cell suspension was prepared and injected to lethally irradiated mice. After 9 days, spleen colonies were counted to determine the CFU-S content in 1-Gy irradiated donors who received the peptide.

[1] = per os (oral gavage), 100 ug/kg, 30 min after injection of bone marrow suspension, average of two tests
[2] = intraperitoneally, 100 ug/kg, 30 min after injection of bone marrow suspension, average of two tests

Substance	Colony count [1]	Activity % (per os, 100 ug/kg) [%]	Stimulation index (per os, 100 ug/kg)	% stimulation (IP, 10 ug/kg) [%]	Colony count (IP, 10 ug/kg)	% stimulation (IP, 100 ug/kg (Table 4)) [%]	Colony count (IP, 100 ug/kg (Table 4))	% stimulation (IP, 1000 ug/kg) [%]	Colony count (IP, 1000 ug/kg)	Activity % (intraperitoneally, 100 ug/kg) [%]	Stimulation index (intraperitoneally, 100 ug/kg)	Colony count [2]	% stimulation (per/os, 100 ug/kg (Table 4)) [%]	Colony count (per/os, 100 ug/kg (Table 4))	% stimulation (per/os, 1000 ug/kg) [%]	Colony count (per/os, 1000 ug/kg)	% stimulation (per/os, 10 ug/kg) [%]	Colony count (per/os, 10 ug/kg)
H-L-Ile-D-Glu-D-Trp-OH [reference compound]	5.8 ± 0.3	0	0															
H-L-Ile-L-Glu-L-Trp-OH [reference compound]	5.6 ± 0.5	0	0	82	9.7 ± 0.4	81	9.6 ± 0.7	100	11.8 ± 00.9	80	0.8	8.2 ± 0.5	0	6.7 ± 0.5	0	6.1 ± 00.3		
H-L-Ile-γ-Glu-L-Trp-OH	8.6 ± 0.7	83	0.8	64	7.6 ± 0.7	69	8.2 ± 00.4	87	10.4 ± 00.6	84	0.8	8.6 ± 0.7	70	8.3 ± 0.4	90	10.7 ± 00.8	0	6.9 ± 0.7
H-L-Leu-L-Glu-L-Trp-OH [reference compound]	6.2 ± 0.3	0	0							74	0.7	7.6 ± 0.7						
H-L-Leu-L-γ-Glu-L-Trp-OH	6.7 ± 0.7	67	0.7							69	0.7	6.9 ± 0.6						
H-L-Trp-L-Glu-L-Ile-OH [reference compound]	5.9 ± 0.8	0	0							79	0.8	8.1 ± 1.0						
H-L-γ-Glu-D-Trp-L-Ile-OH	6.8 ± 0.5	66	0.7							61	0.6	6.2 ± 0.5						
H-L-γ-Glu-L-Trp-L-Ile-OH	7.7 ± 0.6	75	0.7							73	0.7	7.5 ± 0.5						
